According to patent US12077503B2, “Substituted cyclic amides and their use as herbicides” (FMC CORPORATION, priority 2015, dated 2024):

Legend:
Type in all cases: in vivo
[1] = system: velvetleaf (Abutilon theophrasti); assay: Test G Pre-Emergence Protocol; settings: Abutilon theophrasti, pre-emergence, 312 h, evaluated after 13 days; for pest or weed control at 15.625 g/ha: 15.625 g ai/ha; for pest or weed control at 15.625 g/ha / pest or weed control at 250 g/ha: read-out: Velvetleaf damage rating (100=total damage to plant; 0=no damage to plant); for pest or weed control at 62.5 g/ha: 62.5 g ai/ha, 100=total damage to plant, 0=no damage to plant, read-out: Velvetleaf damage rating; for pest or weed control at 250 g/ha: 250 g ai/ha
In short: (§1)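 Herbicidal effect was rated 13 days post-application on a scale where 100 equals total damage. Spraying took place the day after sowing, using 15.625, 62.5 or 250 g/ha of compound in a 50:50 acetone/water solution with 0.5% Tween 20.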

[2] = system: redroot pigweed (Amaranthus retroflexus); assay: Test G Pre-Emergence Protocol; settings: Amaranthus retroflexus, pre-emergence, 312 h, evaluated after 13 days; for pest or weed control at 15.625 g/ha: 15.625 g ai/ha; for pest or weed control at 15.625 g/ha / pest or weed control at 250 g/ha: read-out: Pigweed, Redroot damage rating (100=total damage to plant; 0=no damage to plant); for pest or weed control at 62.5 g/ha: 62.5 g ai/ha, 100=total damage to plant, 0=no damage to plant, read-out: Pigweed, Redroot damage rating; for pest or weed control at 250 g/ha: 250 g ai/ha
In short: as §1

[3] = system: barnyardgrass (Echinochloa crus-galli); assay: Test G Pre-Emergence Protocol; settings: Echinochloa crus-galli, pre-emergence, 312 h, evaluated after 13 days; for pest or weed control at 15.625 g/ha: 15.625 g ai/ha; for pest or weed control at 15.625 g/ha / pest or weed control at 250 g/ha: read-out: Barnyardgrass damage rating (100=total damage to plant; 0=no damage to plant); for pest or weed control at 62.5 g/ha: 62.5 g ai/ha, 100=total damage to plant, 0=no damage to plant, read-out: Barnyardgrass damage rating; for pest or weed control at 250 g/ha: 250 g ai/ha
In short: as §1

[4] = system: ivy-leaved morning glory (Ipomoea hederacea); assay: Test G Pre-Emergence Protocol; settings: Ipomoea, pre-emergence, 312 h, evaluated after 13 days; for pest or weed control at 15.625 g/ha: 15.625 g ai/ha; for pest or weed control at 15.625 g/ha / pest or weed control at 250 g/ha: read-out: Morningglory, Ivy-leaved damage rating (100=total damage to plant; 0=no damage to plant); for pest or weed control at 62.5 g/ha: 62.5 g ai/ha, 100=total damage to plant, 0=no damage to plant, read-out: Morningglory, Ivy-leaved damage rating; for pest or weed control at 250 g/ha: 250 g ai/ha
In short: as §1

[5] = system: giant foxtail (Setaria faberi); assay: Test G Pre-Emergence Protocol; settings: Setaria faberi, pre-emergence, 312 h, evaluated after 13 days; for pest or weed control at 15.625 g/ha: 15.625 g ai/ha; for pest or weed control at 15.625 g/ha / pest or weed control at 250 g/ha: read-out: Foxtail, Giant damage rating (100=total damage to plant; 0=no damage to plant); for pest or weed control at 62.5 g/ha: 62.5 g ai/ha, 100=total damage to plant, 0=no damage to plant, read-out: Foxtail, Giant damage rating; for pest or weed control at 250 g/ha: 250 g ai/ha
In short: as §1

corn (Zea mays) [6] = assay: Test G Pre-Emergence Protocol; settings: Zea mays, pre-emergence, 312 h, evaluated after 13 days; for plant injury at 15.625 g/ha: 15.625 g ai/ha; for plant injury at 15.625 g/ha / plant injury at 250 g/ha: read-out: Corn damage rating (100=total damage to plant; 0=no damage to plant); for plant injury at 62.5 g/ha: 62.5 g ai/ha, 100=total damage to plant, 0=no damage to plant, read-out: Corn damage rating; for plant injury at 250 g/ha: 250 g ai/ha
In short: as §1

[7] = system: velvetleaf (Abutilon theophrasti); assay: Test G Post-Emergence Protocol; settings: Abutilon theophrasti, post-emergence, 312 h, read-out: Velvetleaf damage rating; for pest or weed control at 15.625 g/ha: 15.625 g ai/ha, evaluated after 13 days (100=total damage to plant; 0=no damage to plant); for pest or weed control at 62.5 g/ha: 62.5 g ai/ha; for pest or weed control at 62.5 g/ha / pest or weed control at 250 g/ha: evaluated after 13 days, 100=total damage to plant, 0=no damage to plant; for pest or weed control at 250 g/ha: 250 g ai/ha
In short: (§2)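 Pot-grown seedlings, 8 days old, raised in a glasshouse at 24/16 °C day/night with 14 h light and 65% humidity, were sprayed post-emergence with test compound in acetone/water (50:50) plus 0.5% Tween 20 at 15.625, 62.5 or 250 g/ha. Damage was scored visually 13 days later on a 0–100 scale (100 = total damage).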

[8] = system: redroot pigweed (Amaranthus retroflexus); assay: Test G Post-Emergence Protocol; settings: Amaranthus retroflexus, post-emergence, 312 h, read-out: Pigweed, Redroot damage rating; for pest or weed control at 15.625 g/ha: 15.625 g ai/ha, evaluated after 13 days (100=total damage to plant; 0=no damage to plant); for pest or weed control at 62.5 g/ha: 62.5 g ai/ha; for pest or weed control at 62.5 g/ha / pest or weed control at 250 g/ha: evaluated after 13 days, 100=total damage to plant, 0=no damage to plant; for pest or weed control at 250 g/ha: 250 g ai/ha
In short: as §2

[9] = system: barnyardgrass (Echinochloa crus-galli); assay: Test G Post-Emergence Protocol; settings: Echinochloa crus-galli, post-emergence, 312 h, read-out: Barnyardgrass damage rating; for pest or weed control at 15.625 g/ha: 15.625 g ai/ha, evaluated after 13 days (100=total damage to plant; 0=no damage to plant); for pest or weed control at 62.5 g/ha: 62.5 g ai/ha; for pest or weed control at 62.5 g/ha / pest or weed control at 250 g/ha: evaluated after 13 days, 100=total damage to plant, 0=no damage to plant; for pest or weed control at 250 g/ha: 250 g ai/ha
In short: as §2

[10] = system: ivy-leaved morning glory (Ipomoea hederacea); assay: Test G Post-Emergence Protocol; settings: Ipomoea, post-emergence, 312 h, read-out: Morningglory, Ivy-leaved damage rating; for pest or weed control at 15.625 g/ha: 15.625 g ai/ha, evaluated after 13 days (100=total damage to plant; 0=no damage to plant); for pest or weed control at 62.5 g/ha: 62.5 g ai/ha; for pest or weed control at 62.5 g/ha / pest or weed control at 250 g/ha: evaluated after 13 days, 100=total damage to plant, 0=no damage to plant; for pest or weed control at 250 g/ha: 250 g ai/ha
In short: as §2

[11] = system: giant foxtail (Setaria faberi); assay: Test G Post-Emergence Protocol; settings: Setaria faberi, post-emergence, 312 h, read-out: Foxtail, Giant damage rating; for pest or weed control at 15.625 g/ha: 15.625 g ai/ha, evaluated after 13 days (100=total damage to plant; 0=no damage to plant); for pest or weed control at 62.5 g/ha: 62.5 g ai/ha; for pest or weed control at 62.5 g/ha / pest or weed control at 250 g/ha: evaluated after 13 days, 100=total damage to plant, 0=no damage to plant; for pest or weed control at 250 g/ha: 250 g ai/ha
In short: as §2

corn (Zea mays) [12] = assay: Test G Post-Emergence Protocol; settings: Zea mays, post-emergence, 312 h, read-out: Corn damage rating; for plant injury at 15.625 g/ha: 15.625 g ai/ha, evaluated after 13 days (100=total damage to plant; 0=no damage to plant); for plant injury at 62.5 g/ha: 62.5 g ai/ha; for plant injury at 62.5 g/ha / plant injury at 250 g/ha: evaluated after 13 days, 100=total damage to plant, 0=no damage to plant; for plant injury at 250 g/ha: 250 g ai/ha
In short: as §2

SMILES	pest or weed control at 15.625 g/ha [1] [%]	pest or weed control at 62.5 g/ha [1] [%]	pest or weed control at 250 g/ha [1] [%]	pest or weed control at 15.625 g/ha [2] [%]	pest or weed control at 62.5 g/ha [2] [%]	pest or weed control at 250 g/ha [2] [%]	pest or weed control at 15.625 g/ha [3] [%]	pest or weed control at 62.5 g/ha [3] [%]	pest or weed control at 250 g/ha [3] [%]	pest or weed control at 15.625 g/ha [4] [%]	pest or weed control at 62.5 g/ha [4] [%]	pest or weed control at 250 g/ha [4] [%]	pest or weed control at 15.625 g/ha [5] [%]	pest or weed control at 62.5 g/ha [5] [%]	pest or weed control at 250 g/ha [5] [%]	plant injury at 15.625 g/ha (corn (Zea mays) [6]) [%]	plant injury at 62.5 g/ha (corn (Zea mays) [6]) [%]	plant injury at 250 g/ha (corn (Zea mays) [6]) [%]	pest or weed control at 15.625 g/ha [7] [%]	pest or weed control at 62.5 g/ha [7] [%]	further results
CSc1ccncc1NC(=O)[C@H]1C(=O)N(C)C[C@@H]1c1ccc(C(F)(F)F)cc1 (racemic) [Compound 1749]	0	0	0	0	0	0	0	0	0	0	0	0	0	0	0	0	0	0	0	0	pest or weed control at 250 g/ha [7]: 0%; pest or weed control at 15.625 g/ha [8]: 0%; pest or weed control at 62.5 g/ha [8]: 0%; pest or weed control at 250 g/ha [8]: 0%; pest or weed control at 15.625 g/ha [9]: 0%; pest or weed control at 62.5 g/ha [9]: 0%; pest or weed control at 250 g/ha [9]: 0%; pest or weed control at 15.625 g/ha [10]: 0%; pest or weed control at 62.5 g/ha [10]: 0%; pest or weed control at 250 g/ha [10]: 0%; pest or weed control at 15.625 g/ha [11]: 0%; pest or weed control at 62.5 g/ha [11]: 0%; pest or weed control at 250 g/ha [11]: 0%; plant injury at 15.625 g/ha (corn (Zea mays) [12]): 0%; plant injury at 62.5 g/ha (corn (Zea mays) [12]): 0%; plant injury at 250 g/ha (corn (Zea mays) [12]): 0%
CSc1ccncc1NC(=O)[C@H]1C(=O)N(C)C[C@@H]1c1cccc(C(F)(F)F)c1 (racemic) [Compound 1750]	0	0	0	0	0	0	0	10	10	0	0	0	0	20	70	0	0	10	0	0	pest or weed control at 250 g/ha [7]: 0%; pest or weed control at 15.625 g/ha [8]: 0%; pest or weed control at 62.5 g/ha [8]: 10%; pest or weed control at 250 g/ha [8]: 20%; pest or weed control at 15.625 g/ha [9]: 0%; pest or weed control at 62.5 g/ha [9]: 0%; pest or weed control at 250 g/ha [9]: 20%; pest or weed control at 15.625 g/ha [10]: 0%; pest or weed control at 62.5 g/ha [10]: 10%; pest or weed control at 250 g/ha [10]: 10%; pest or weed control at 15.625 g/ha [11]: 0%; pest or weed control at 62.5 g/ha [11]: 0%; pest or weed control at 250 g/ha [11]: 50%; plant injury at 15.625 g/ha (corn (Zea mays) [12]): 0%; plant injury at 62.5 g/ha (corn (Zea mays) [12]): 10%; plant injury at 250 g/ha (corn (Zea mays) [12]): 10%
